{"source": "patent US20200306173A1", "about": "“LICORICE EXTRACT SYNERGY WITH MENTHOL FOR BREATH FRESHENING IN A CONFECTIONARY PRODUCT” (WM. WRIGLEY JR. COMPANY, priority 2017, published 2020)", "system": "salivary bacteria", "assay": "Hydrogen sulfide production by salivary bacteria in pooled saliva mixed with L-cysteine, headspace GC with sulfur detector", "assay_type": "cell-based, human", "settings": "Example 2, FIG. 2; menthol alone at 4 mg/ml as compared to 2 mg/ml", "protocol": "• 1. About 10-20 ml of saliva was obtained from human subjects and mixed together prior to use. • 2. L-cysteine was dissolved in deionized (D.I.) water to produce 0.5% of cysteine solution. • 3. About 2.5 ml of pooled saliva was mixed with 2.5 ml of cysteine solution in a 20 ml headspace vial. • 4. The amount of hydrogen sulfide generated by salivary bacteria was analyzed by a gas chromatography (GC) equipped with a sulfur detector. Pooled saliva (50% dilution) and L-cysteine (0.25% in D.I. water) were used as the negative controls.\n• 1. For evaluation of the headspace concentration of volatile sulfur compounds (VSCs), a gas chromatograph (GC) equipped with a sulfur chemiluminescence detector (SCD) was used. • 2. Each run was completed within 10 minutes. • 3. The level of H2S was analyzed by the GC-SCD by direct injection of 0.25 ml of headspace volume with an automated sampler.\nLevels of H2S concentrations [μg/mL] were measured by gas […]. Licorice extract powder (Glycyrrhiza glabra) and menthol were each evaluated individually and then in combination. Saliva with cysteine served as a control reference. Licorice extract powder was sampled individually at 10 mg/ml and 20 mg/ml in a saliva-cysteine mixture. Menthol at 2 mg/ml was sampled individually. Three combinations of licorice and menthol were sampled, varying the amount of licorice extract."}
{"smiles": "CC1CCC(C(C)C)C(O)C1", "note": "(stereo not shown) [menthol]", "values": [{"measurement": "H2S production (peak gas chromatography area)", "value": "slight decrease of H2S production in later time points"}]}
